“Also recorded” adds a separate entry of the source. Square brackets hold non-standard residues; d marks the D form. Peptide text beside a SMILES is read from it.
Assays:
α-syn monomer [1] = experiment: CD secondary structure analysis of de novo aggregation; assay type: biochemical; conditions: 10 µM α-syn + 20 µM SVD-1a (two-fold molar excess), 7 days
Description: (§1) Fig. 7 De novo aggregation analysis of α-syn in the presence and absence of SVD-1a. A De novo ThT assay of 10 µM α-syn with and without 20 µM SVD-1a. ThT fluorescence progression was measured in a 96-well non-binding half-area plate (Corning, USA) with a FLUOStar plate reader (BMG labtech, GE) at λex = 448 nm and λem = 482 nm with 300 rpm continuous orbital shaking between reads. For induction of aggregation, one borosilicate bead per well was added (d = 3 mm, Hilgenberg, GE). Data are shown as mean values with ±SD (n = 5). B CD secondary structure analysis of de novo aggregation samples. Samples were incubated as described in (A) without added ThT (n = 3) and subsequently pooled for CD analysis. Far-UV ellipticity of the samples was measured in a quartz cuvette (l = 10 mm) in a J-1100 CD-spectrometer (Jasco, GE). In addition to (A), a sample with 20 µM SVD-1a alone was incubated under identical conditions and later used as a reference for the sample with α-syn and SVD-1a. For this sample (α-syn + SVD-1a (after incubation)), the SVD-1a reference subtracted CD spectrum is shown. […] D α-Syn in the flow through (MWCO < 100 kDa) was quantified using an α-syn specific ELISA (BioLegend, Human α-Synuclein (Colorimetric), 448607, n = 3). E Retentate and flow-through samples were analyzed using SDS–PAGE with silver staining. […]

[2] = system: α-synuclein monomer seeded with small α-syn PFF; experiment: CD spectroscopy of the seeded aggregation assay; assay type: biochemical; conditions: 30 µM SVD-1a, 500 nM PFF, 15 µM α-syn monomer, PBS pH 7.4, 37 °C, 24 h
Description: Far-UV circular dichroism (CD) data were collected using a Jasco J-1100 spectropolarimeter (Jasco, GE). 350 µl samples were pooled and loaded into a high precision quartz cuvette with a path length of 1 mm (Hellma group, GE). A scan speed of 20 nm/min with five accumulations per sample was performed using far UV wavelengths from 260 to 190 nm. Baseline was corrected by subtracting measurements of the reference sample only.
Supplementary Fig. 13: Analysis of the seeded aggregation assay in the presence and absence of SVD-1a using circular dichroism (CD) spectroscopy. Small α-syn PFF (500 nM) were incubated in PBS (pH 7.4) at 37 °C under quiescent conditions for 24 hours, either alone or in the presence of 15 µM α-synuclein monomer and/or 30 µM SVD-1a. For each condition and time point, three replicates (each 120 µl) were pooled and analyzed by CD spectroscopy at 0, 2, 8, and 24 hours. Far-UV ellipticity was measured in a quartz cuvette (path length = 10 mm) using a J-1100 CD spectrometer (Jasco, GE). […] (D) Co-incubation of 500 nM α-synuclein PFFs with 15 µM α-synuclein monomer induced a structural transition towards β-sheet formation, as reflected in the CD spectrum (referenced to spectrum in (A)).

α-syn monomer [3] = experiment: 100 kDa MWCO fractionation of de novo aggregation samples followed by ELISA; assay type: biochemical, Human; conditions: 7 days, ELISA n = 3
Description: as §1

How did the “α-syn secondary structure after de novo aggregation (CD)” value (α-syn monomer [1]) turn out when `CC[C@@H](C)[C@@H](NC(=O)[C@@H](Cc1c[nH]cn1)NC(=O)[C@@H](CCC(=O)O)NC(=O)[C@@H](CCC(N)=O)NC(=O)[C@@H](Cc1c[nH]c2ccccc12)NC(=O)[C@@H](Cc1ccc(O)cc1)NC(=O)[C@H](NC(=O)[C@@H](CCC(=O)O)NC(=O)[C@@H](Cc1c[nH]cn1)NC(=O)[C@H](NC(=O)[C@H]1CCCN1C(=O)[C@@H](CC(C)C)NC(=O)[C@H](N)CCCNC(=N)N)[C@H](C)O)[C@H](C)O)C(=O)N[C@H](Cc1c[nH]c2ccccc12)C(=O)N[C@H](Cc1c[nH]cn1)C(=O)N[C@H](C)C(=O)N[C@H](CCCNC(=N)N)C(=O)N[C@H](CCCNC(=N)N)C(=O)N[C@H](CCCNC(=N)N)C(=O)N[C@H](CCCNC(=N)N)C(=O)N[C@H](CCCNC(=N)N)C(N)=O` [SVD-1a] (H-[dR][dL][dP][dT][dH][dE][dT][dY][dW][dQ][dE][dH][dI][dW][dH][dA][dR][dR][dR][dR][dR]-NH2) was run?
Its value is “no spectrum shift towards a beta-sheet spectrum was observed; also recorded: fully stabilizes monomeric α-syn in its random coil secondary structure after 7 days of incubation”.

And the “α-syn secondary structure under seeded conditions” value [2]?
The value was “stabilized the α-synuclein monomer in its random coil conformation throughout the incubation period”.

And the “monomeric α-syn in flow-through” value (α-syn monomer [3]; 10 µM α-syn with 5, 10, 20 µM SVD-1a, controls ~3.7 µM before, ~0.3 µM after incubation without compound)?
Its value is “concentration-dependent stabilization of monomeric α-syn”.

What about the “monomeric α-syn in flow-through vs non-pre-incubated control” value (α-syn monomer [3]; 20 µM SVD-1a, 10 µM α-syn) of the same compound?
Its value is “restoring monomer levels in the eluate to those of the non-pre-incubated control”.

— paper PMC12454639, “Direct disassembly of α-syn preformed fibrils into α-syn monomers by an all-D-peptide” (NPJ Parkinson's Disease, 2025)
